Laboratory results published in US20240148645A1, “NON-NANOPARTICULATE APPLICATION FORMS OF MACROLIDES” (Nucleus Medical GmbH, priority 2021, published 2024).
Converted amounts (≈) assume the structure as drawn.

Assays:
[1] = low solubility and high permeability; cited from earlier work
[2] = Saturation solubility of tacrolimus in different solvents; format: physicochemical; conditions: for solubility: thermodynamic from solid, room temperature
Experimental: Tacrolimus was dissolved in an organic solvent. Particularly, the saturation solubility of tacrolimus in different organic solvents was tested. Crystalline active ingredient was added to a defined amount of solvent at room temperature while stirring until an insoluble sediment was formed. After filtration, the concentration of active ingredient was quantified by HPLC in the supernatant.

C=CC[C@@H]1/C=C(\C)C[C@H](C)C[C@H](OC)[C@H]2O[C@@](O)(C(=O)C(=O)N3CCCC[C@H]3C(=O)O[C@H](/C(C)=C/[C@@H]3CC[C@@H](O)[C@H](OC)C3)[C@H](C)[C@@H](O)CC1=O)[C@H](C)C[C@@H]2OC [Tacrolimus]
BCS class [1]: BCS class II
Solubility in tested organic solvents [2]: soluble in all tested organic solvents
solubility ([2]; organic solvent or mixture, Acetic Acid): 545 mg/mL (≈ 678 mM)
solubility ([2]; organic solvent or mixture, DMSO): 582 mg/mL (≈ 724 mM)
solubility ([2]; organic solvent or mixture, Ethanol): 389 mg/mL (≈ 484 mM)
solubility ([2]; organic solvent or mixture, iso-Propanol): 243 mg/mL (≈ 302 mM)
solubility ([2]; Water): 0.00076 mg/mL (≈ 0.000945 mM)
